In article PMC10653770 (Journal of Enzyme Inhibition and Medicinal Chemistry, 2023):

Assays:
SH − SY5Y cells [1] = settings: for toxicity towards SHSY5Y cells: within the tested concentration range
SH − SY5Y cells [2] = assay type: cell-based, human; settings: 1 μM compound; Aβ1 − 42 20 μM, 48 h
hAChE = hAChE (Homo sapiens, UniProt P22303); test: Kinetic profiling of AChE inhibition; assay type: biochemical; settings: Lineweaver–Burk plot
in vitro = settings: human
[3] = target: AChE − induced Aβ1 − 42 aggregation (Homo sapiens, UniProt P22303); assay type: biochemical; settings: co-incubation with Aβ1-42 and AChE for 24h; 0.1 μM and 1 μM compound
Sequence of AChE − induced Aβ1 − 42 aggregation (P22303 32-614): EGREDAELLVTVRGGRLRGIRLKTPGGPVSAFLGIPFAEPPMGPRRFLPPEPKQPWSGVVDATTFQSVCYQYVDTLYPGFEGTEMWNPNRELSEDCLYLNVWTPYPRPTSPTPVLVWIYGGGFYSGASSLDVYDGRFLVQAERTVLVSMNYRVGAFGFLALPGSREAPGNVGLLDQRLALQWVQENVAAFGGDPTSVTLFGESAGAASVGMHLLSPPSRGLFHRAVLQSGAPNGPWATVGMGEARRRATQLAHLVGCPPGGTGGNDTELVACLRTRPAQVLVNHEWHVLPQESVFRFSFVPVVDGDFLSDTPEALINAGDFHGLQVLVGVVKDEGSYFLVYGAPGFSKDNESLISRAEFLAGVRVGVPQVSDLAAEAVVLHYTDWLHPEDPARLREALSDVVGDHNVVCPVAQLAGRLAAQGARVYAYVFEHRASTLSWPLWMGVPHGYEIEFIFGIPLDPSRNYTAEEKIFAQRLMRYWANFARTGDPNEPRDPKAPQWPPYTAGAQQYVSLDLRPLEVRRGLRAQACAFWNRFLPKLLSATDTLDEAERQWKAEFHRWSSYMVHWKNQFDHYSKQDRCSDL

Sequence of hAChE (P22303 32-614): as above

| Structure (SMILES) | cytotoxicity in SHSY5Y cells (SH − SY5Y cells [1]; 0.1 to 1 μM, 48h incubation) | toxicity towards SHSY5Y cells (SH − SY5Y cells [1]) | cellular recovery against Aβ1 − 42−induced damage (SH − SY5Y cells [2]) | type of AChE inhibition (hAChE) | viability at 10 µM (in vitro) | AChE − induced Aβ1 − 42 aggregation [3] |
| --- | --- | --- | --- | --- | --- | --- |
| C=CCn1c2cc(OC(=O)CCCCN3CCN(Cc4ccccc4)CC3)ccc2c2ccnc(C)c21 [Compound 13, 9-allyl-1-methyl-9H-pyrido[3,4-b]indol-7-yl 5–(4-benzylpiperazin-1-yl)pentanoate] | negligible cytotoxicity | weak toxicity | exceptional cellular recovery | mixed − type inhibition | > 79% | significant reduction in Aβ1 − 42 aggregation |
| C=CCn1c2cc(OC(=O)CCCCN3CCN(Cc4ccc(F)cc4)CC3)ccc2c2ccnc(C)c21 [Compound 17d, 9-allyl-1-methyl-9H-pyrido[3,4-b]indol-7-yl 5–(4-(4-fluorobenzyl)piperazin-1-yl)pentanoate] |  | weak toxicity |  |  | > 79% | significant reduction in Aβ1 − 42 aggregation |
